From BindingDB's records for doi:10.1016/j.bioorg.2016.11.007 (University of Karachi, 2017)
pIC50, pKi: −log10 of the molar value.

Assays:
[1] = biological target: T1, Thymidine phosphorylase (Escherichia coli (strain K12), UniProt P07650); assay: Thymidine Phosphorylase Inhibition Assay; conditions: 30 °C
Procedure: TP inhibition assay was performed spectrophotometrically in 96-well plate. […] The total reaction volume was 200 μL. 20 μL of TP enzyme (0.058 unit/well) was incubated with 10 μL of test compounds (0.5 mM) for 10 min at 30 C. […] Every experiment was run in triplicate.

[2] = biological target: T1, Thymidine phosphorylase; assay: Kinetic Assay; conditions: 30 °C

T1 sequence (P07650 whole entry): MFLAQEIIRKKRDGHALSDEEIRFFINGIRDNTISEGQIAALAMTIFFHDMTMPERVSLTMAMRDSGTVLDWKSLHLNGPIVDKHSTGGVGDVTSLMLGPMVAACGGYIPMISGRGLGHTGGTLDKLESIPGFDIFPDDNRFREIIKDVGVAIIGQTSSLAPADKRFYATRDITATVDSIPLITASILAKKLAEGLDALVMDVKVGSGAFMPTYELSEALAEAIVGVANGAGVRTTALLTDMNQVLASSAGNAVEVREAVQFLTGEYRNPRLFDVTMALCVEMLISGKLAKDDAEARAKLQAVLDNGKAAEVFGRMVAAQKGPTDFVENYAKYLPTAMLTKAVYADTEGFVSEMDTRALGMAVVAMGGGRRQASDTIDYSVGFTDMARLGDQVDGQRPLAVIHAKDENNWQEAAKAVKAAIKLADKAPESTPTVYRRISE

pIC50 [1] | pKi [2] | Compound
3.84 |  | Cc1cn([C@H]2C[C@H](OC(=O)c3ccc(Cl)cc3Cl)[C@@H](COC(=O)c3ccc(Cl)cc3Cl)O2)c(=O)[nH]c1=O [5'-O-(2'',4''-Dichlorobenzoyl)-thymidine-3'-O-2'',4''-dichlorobenzoate (13)]
4.05 |  | COc1ccccc1C(=O)OC[C@H]1O[C@@H](n2cc(C)c(=O)[nH]c2=O)C[C@@H]1O [5'-O-(2''-Methoxybenzoyl)-thymidine (11)]
4.48 | 4.94 | Cc1cn([C@H]2C[C@H](O)[C@@H](COC(=O)c3cccc(Br)c3)O2)c(=O)[nH]c1=O [5'-O-(3''-Bromobenzoyl)-thymidine (15)]
5.12 | 5.11 | Cc1cn([C@H]2C[C@H](OC(=O)c3ccc(Br)cc3)[C@@H](COC(=O)c3ccc(Br)cc3)O2)c(=O)[nH]c1=O [5'-O-(4''-Bromobenzoyl)-thymidine-3'-O-4''-bromobenzoate (14)]
4.73 | 4.89 | COc1ccc(C(=O)OC[C@H]2O[C@@H](n3cc(C)c(=O)[nH]c3=O)C[C@@H]2O)cc1 [5'-O-(4''-Methoxybenzoyl)-thymidine (10)]
4.73 | 4.90 | Cc1ccc(C(=O)OC[C@H]2O[C@@H](n3cc(C)c(=O)[nH]c3=O)C[C@@H]2O)cc1 [5'-O-(4''-Methylbenzoyl)-thymidine (4)]
